Experimental data taken from article PMC9145846, “Polycyclic Phenol Derivatives from the Leaves of Spermacoce latifolia and Their Antibacterial and α-Glucosidase Inhibitory Activity” (Molecules, 2022).
In brackets after ≈: the same amount, converted by molar mass. Structures can show the parent of a compound that is named as a salt. Where two headings read alike, the source gives them in different places.

Assays:
[1] = test system: Staphyloccocus aureus (CMCC26003); assay: Antibacterial assay (resazurin, 96-well doubling dilution), SA; type: cell-based; details: for MIC: read-out: MIC, SA
Procedure: (§1) The antibacterial assay was monitored in 96-well plates by using a method as described previously. Briefly, 100 μL indicator solution (resazurin in sterile water, 100 μg/mL) was first placed into each of the sterility control wells (11th column) on the 96-well plates, and the indicator solution (about 7.5 mL, 100 μg/mL) was mixed with test bacteria (5 mL, 10^6 cfu/mL, OD600 = 0.07) followed by transferring (100 μL, each) to growth control wells (12th column) and all test wells (1–10th column). Then, each of 100 μL of test compounds (1 mg/mL) in beef extract peptone medium, along with the positive control solutions (prepared by adding kanamycin sulfate and vancomycin instead of the samples) and the negative control solution (3% DMSO of beef extract peptone medium), were applied to the wells in the 1st column of the plates. Once all samples and controls were properly applied to the 1st column of wells on the plate, half of the homogenized content (100 μL solution) was then parallel-transferred from the 1st column wells to the 2nd column wells, and each subsequent well was treated similarly (doubling dilution) up to the 10th column, followed by discarding the last 100 μL aliquot. Finally, the plates were incubated at 37 °C for 5–6 h until the color of growth control change to pink. The lowest concentration for each test compound at which […] was recorded as the MIC value of the test compound. In the bioassay, Gram-(+) bacterial strains of Staphyloccocus aureus (CMCC26003), methicillin-resistant Staphylococcus aureus (MRSA), Bacillus cereus (CMCC63302), Bacillus subtilis (CMCC63501), and Gram-(−) bacterial strain of Escherichia coli (CMCC44102) were used for the test, and they were all purchased from the Guangdong Institute of Microbiology (Guangzhou, China).

[2] = test system: methicillin-resistant Staphylococcus aureus (MRSA); assay: Antibacterial assay (resazurin, 96-well doubling dilution), MRSA; type: cell-based; details: for MIC: MRSA, read-out: MIC, MRSA
Procedure: as §1

[3] = test system: Bacillus subtilis (CMCC63501); assay: Antibacterial assay (resazurin, 96-well doubling dilution), BS; type: cell-based
Procedure: as §1

[4] = test system: Bacillus cereus (CMCC63302); assay: Antibacterial assay (resazurin, 96-well doubling dilution), BC; type: cell-based
Procedure: as §1

[5] = test system: Escherichia coli (CMCC44102); assay: Antibacterial assay (resazurin, 96-well doubling dilution), EC; type: cell-based
Procedure: as §1

α-glucosidase = α-glucosidase (Saccharomyces cerevisiae, UniProt P53341); assay: α-Glucosidase inhibition assay (PNPG substrate); details: read-out: α-Glucosidase inhibitory activity IC50; mean ± SD (n = 3); pH 6.8, PNPG, 37 °C, 15 min
Sequence of α-glucosidase (P53341 whole entry): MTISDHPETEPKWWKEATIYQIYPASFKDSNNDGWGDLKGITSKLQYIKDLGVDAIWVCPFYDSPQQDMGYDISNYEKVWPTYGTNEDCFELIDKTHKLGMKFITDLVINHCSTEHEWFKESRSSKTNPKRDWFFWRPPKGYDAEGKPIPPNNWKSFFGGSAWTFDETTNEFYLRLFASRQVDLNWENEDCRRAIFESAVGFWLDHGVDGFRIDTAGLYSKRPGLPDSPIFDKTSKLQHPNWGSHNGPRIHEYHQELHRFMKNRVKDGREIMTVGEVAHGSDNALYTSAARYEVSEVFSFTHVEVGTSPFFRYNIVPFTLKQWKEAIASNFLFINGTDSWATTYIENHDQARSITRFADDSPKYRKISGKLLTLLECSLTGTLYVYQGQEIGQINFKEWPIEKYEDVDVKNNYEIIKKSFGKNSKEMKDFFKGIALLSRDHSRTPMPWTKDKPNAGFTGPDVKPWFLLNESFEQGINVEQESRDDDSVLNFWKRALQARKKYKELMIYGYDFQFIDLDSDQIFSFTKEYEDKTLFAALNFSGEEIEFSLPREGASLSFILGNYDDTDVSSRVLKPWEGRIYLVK
Procedure: The a-glucosidase inhibitory activity of the ten isolated compounds was determined in 96-well microtiter plates following the method as described previously [15, 42]. In brief, α-glucosidase (20 μL, 0.5 U/mL) and various concentrations (500, 250, 125, 62.5, 31.2, 15.6, 7.8, 3.9 µg/mL) of tested compounds (120 μL) in 67 mM phosphate buffer (pH 6.8) were mixed in 96-well microtiter plates at room temperature for 10 min. Reactions were initiated by addition of 20 μL of 5.0 mM p-nitrophenyl-α-d-glucopyranoside (PNPG). The reaction mixture was incubated for 15 min at 37 °C in a final volume of 160 μL. Then, 0.2 M Na2CO3 (80 μL) was added to the incubation solution to stop the reaction and the absorbance was determined at 405 nm (for p-nitrophenol). The negative blank was set by adding phosphate buffer instead of test compounds via the same experimental procedure. […] The blank was set by adding phosphate buffer instead of the α-glucosidase using the same method. Inhibition rate (%) = [(ODnegative control − ODblank) − (ODtest − ODtest blank)]/(ODnegative blank − ODblank) × 100%. IC50 values were calculated and expressed as means ± standard deviations (SD) and SPSS 23.0 software was used for the analysis of variances.

[6] = Staphyloccocus aureus, 37 °C, 5–6 h, resazurin colour change
[7] = methicillin-resistant Staphylococcus aureus, 37 °C, 5–6 h, resazurin colour change
[8] = 37 °C, 5–6 h, resazurin colour change
[9] = CMCC63501, 37 °C, 5–6 h, resazurin colour change, read-out: MIC, BS
[10] = CMCC63302, 37 °C, 5–6 h, resazurin colour change, read-out: MIC, BC
[11] = CMCC44102, 37 °C, 5–6 h, resazurin colour change, read-out: MIC, EC

| Compound | MIC, MRSA [2, 7] | MIC [1, 6] | MIC [2, 7] | MIC [3, 9] | MIC [4, 10] | MIC [5, 11] | further results |
| --- | --- | --- | --- | --- | --- | --- | --- |
| 6,7,8,4′-tetramethoxyflavone [Compound 10] | >100 µg/mL |  |  |  |  |  | MIC, SA [1, 6]: 62.5 µg/mL; MIC, BS [3, 8]: 15.6 µg/mL; MIC, BC [4, 8]: 62.5 µg/mL; MIC, EC [5, 8]: >100 µg/mL; IC50 (α-glucosidase): > 1000 µM |
| O=c1ccc2cc(O)c(O)cc2o1 [Compound 5, esculetin] | inactive | 31.2 µg/mL (≈ 175 µM) | > 100 µg/mL | 7.81 µg/mL (≈ 43.8 µM) | 31.2 µg/mL (≈ 175 µM) | > 100 µg/mL |  |
| COc1c(O)cc2c(=O)oc3c(OC)c(O)ccc3c2c1O [Compound 8, 3,8,10-trihydroxy-4,9-dimethoxy-6H-benzo[c]chromen-6-one] | inactive | 15.6 µg/mL (≈ 51.3 µM) | > 100 µg/mL | 15.6 µg/mL (≈ 51.3 µM) | 31.2 µg/mL (≈ 103 µM) | > 100 µg/mL |  |
| O=c1cc(-c2ccc(O)cc2)oc2cc(O)c(O)cc12 [Compound 9, 6,7,4′-trihydroxyflavone] |  | > 100 µg/mL | > 100 µg/mL | > 100 µg/mL | > 100 µg/mL | > 100 µg/mL |  |
| CN[C@H](CC(C)C)C(=O)N[C@H]1C(=O)N[C@@H](CC(N)=O)C(=O)N[C@H]2C(=O)N[C@H]3C(=O)N[C@H](C(=O)N[C@H](C(=O)O)c4cc(O)cc(O)c4-c4cc3ccc4O)[C@H](O)c3ccc(c(Cl)c3)Oc3cc2cc(c3O[C@@H]2O[C@H](CO)[C@@H](O)[C@H](O)[C@H]2O[C@H]2C[C@](C)(N)[C@H](O)[C@H](C)O2)Oc2ccc(cc2Cl)[C@H]1O [V, Vancomycin, reference compound] |  |  |  |  |  |  | MIC [1]: 1.95 µg/mL (≈ 1.35 µM); MIC ([2]; Staphylococcus aureus): 3.9 µg/mL (≈ 2.69 µM); MIC ([3]; CMCC63501, read-out: MIC, BS): 1.95 µg/mL (≈ 1.35 µM); MIC ([4]; CMCC63302, read-out: MIC, BC): 1.95 µg/mL (≈ 1.35 µM); MIC ([5]; CMCC44102, read-out: MIC, EC): > 100 µg/mL |

Now from value to compound, other results behind:

| MIC, MRSA [2, 7] | MIC [1, 6] | MIC [2, 7] | MIC [3, 9] | MIC [4, 10] | MIC [5, 11] | Compound | further results |
| --- | --- | --- | --- | --- | --- | --- | --- |
| inactive | 62.5 µg/mL (≈ 256 µM) | > 100 µg/mL | 31.2 µg/mL (≈ 128 µM) | 31.2 µg/mL (≈ 128 µM) | > 100 µg/mL | CC(=O)c1cc2c(O)c3oc(=O)ccc3cc2o1 [Compound 1, 2-acetyl-4-hydroxy-6H-furo [2,3-g]chromen-6-one] |  |
| inactive | 62.5 µg/mL (≈ 226 µM) | > 100 µg/mL | 62.5 µg/mL (≈ 226 µM) | 62.5 µg/mL (≈ 226 µM) | > 100 µg/mL | CC(O)(CO)c1cc2c(O)c3oc(=O)ccc3cc2o1 (stereo not drawn) [Compound 2, 2-(1′,2′-dihydroxypropan-2′-yl)-4-hydroxy-6H-furo [2,3-g][1] benzopyran-6-one] |  |
|  | 1.95 µg/mL (≈ 4.77 µM) | 1.95 µg/mL (≈ 4.77 µM) | 1.95 µg/mL (≈ 4.77 µM) | 1.95 µg/mL (≈ 4.77 µM) | > 100 µg/mL | COc1c(O)cc2oc3cc4c(c(O)c3c(=O)c2c1CC=C(C)C)C=CC(C)(C)O4 [Compound 4, 5,9-dihydroxy-8-methoxy-2,2-dimethyl-7-(3-methylbut-2-enyl)-2H,6H-pyrano [3,2-b]xanthen-6-one] |  |
|  | > 100 µg/mL | > 100 µg/mL | > 100 µg/mL | > 100 µg/mL | > 100 µg/mL | COc1cc2oc(=O)ccc2cc1O [Compound 6, isoscopoletin] |  |
|  | > 100 µg/mL | > 100 µg/mL | > 100 µg/mL | > 100 µg/mL | > 100 µg/mL | COc1cc2ccc(=O)oc2c(O)c1O [Compound 7, 7,8-dihydroxy-6-methoxycoumarin] |  |
|  | 1.95 µg/mL | > 100 µg/mL | 1.95 µg/mL | 3.9 µg/mL | 1.95 µg/mL | NC[C@H]1O[C@H](O[C@H]2[C@H](O)[C@@H](O[C@H]3O[C@H](CO)[C@@H](O)[C@H](N)[C@H]3O)[C@H](N)C[C@@H]2N)[C@H](O)[C@@H](O)[C@@H]1O [K, Kanamycin sulfate, reference compound] |  |
